In patent publication US6288110A, “Pharmaceutical compositions comprising disulfiram” (Yeda Research and Development Co Ltd., priority 1998, dated 2001):
Entries after “also recorded” stand apart in the source; their conditions may differ.

Assays:
BCE cells = assay: Apoptosis by FACS (DNA content) in BCE cells; assay type: cell-based, bovine; details: 0.5-5 μM, 20 hours
Experimental: Cells were cultured in plastic tissue culture dishes for 48 hours in presence of growth media as described above, until reaching 40-50% confluency. Disulfiram was then added to the cells for 20 hours. The cells were removed from the plates by EDTA-trypsin and fixed in ice-cold 70% ethanol (BioLab, Israel) in -20° C. for 2 hr to overnight. The fixed cells (2-5×10^6) were washed once with HEPES-buffered saline (HBSS) and incubated with 0.5 mg/ml RNAseH (Boehringer Mannheim). Afterwards the cells were resuspended in HBSS containing 50 μg/ml propidium iodide (Sigma) and subsequently analyzed on a FACSort flow cytometer (Beckton Dickinson Inc.) using Lysis II software. For the analysis, 10,000 cells were examined from each sample. The percentage of the hypodiploid cells was measured (Darzynkiewicz, 1992; Afanasyev, 1993). The cell cycle histogram was divided into four regions according to the cell cycle phases: Ap, apoptotic cells; G1, diploid cells; S, intermediate cells; and G2 /M, tetraploid cells.
Capillary endothelial cells were grown during 48 hours to 40-50% confluency and disulfiram was then added to the cells for 20 hours as described in section (g) of "Materials and Methods" above. […] The abundance of apoptotic cells was dose-dependent.

[1] = tested on: capillary endothelial (BCE) cells; assay: TUNEL assay for apoptosis, BCE cells; assay type: cell-based, bovine; details: 1 μM, 6 hours
Experimental: (§1) Cells were cultured on microscope slides for 48 hours in presence of growth media as described above, until reaching 40-50% confluency. Disulfiram was then added to the cells for 6 hours or for 20 hours in the case of BALB/MK keratinocytes, fixed with 4% paraformaldehyde and washed three times with PBS. Apoptosis was analyzed by the in situ TUNEL staining carried out as described (Wride, 1994). Briefly, microscope slides were incubated for 15 min in 2×SSC buffer at 60° C., washed in DDW and incubated with 20 μg/ml proteinase K (Boehringer Mannheim) for 15 min at room temperature. After a wash with DDW, endogenous peroxidases were inactivated by incubating the slides with 2% H2 O2 in PBST (PBS with 0.05% Tween 20) for 10 min at room temperature. Slides were then incubated in TdT buffer (Boehringer Mannheim) for 5 min at room temperature, and a reaction mixture containing 5×TdT buffer and 1 μl biotin-21-dUTP (Clontech, 1 mM stock) and 8 units of the TdT enzyme (Boehringer Mannheim) in total volume of 50 μl was subsequently added. The reactions were carried out at 37° C. for 1.5 hr in a humid chamber. The slides were washed in 2×SSC, DDW and finally with PBS and covered with 10% skim milk in PBST for 15 min. […]

BALB/MK keratinocytes = assay: TUNEL assay for apoptosis, BALB/MK keratinocytes; assay type: cell-based, murine; details: 5 μM
Experimental: as §1, with “Disulfiram was then added to the cells for 6 hours or for 20 hours in the case of BALB/MK keratinocytes, fixed with 4% paraformaldehyde and washed three times with PBS.” left out, “min. After removal of the skim milk, the sections were incubated with ABC solution from ABC kit (Vector Laboratories, Inc.) for 30 min at room temperature, washed with PBS and stained using AEC procedure (Sigma) The slides were then washed ×3 in DDW and stained with haematoxylin for 30 sec and mounted by Kaiser's glycerol gelatin (Merck).” for “min.”

fibroblasts = assay: Induction of apoptosis, fibroblasts; assay type: cell-based
aldolases = details: cited from earlier work
intestinal cancer = details: azoxymethane, rats; cited from earlier work
[2] = tested on: tumor progression from papilloma to squamous cell carcinoma; details: murine skin multistage carcinogenesis model; cited from earlier work
mammary tumors = details: N-2-fluorenylacetamide or N-hydroxy-N-2-fluorenylacetamide, rats; cited from earlier work
[3] = tested on: Sarcoma 180, EL-4 leukemia or L1210 murine leukemia; details: cited from earlier work
[4] = tested on: toxic side effects of HECNU; details: rats; cited from earlier work
normal mice = details: cited from earlier work
rats = details: 0.05% in diet for 2 years; cited from earlier work
[5] = in vivo; cited from earlier work

SMILES: CCN(CC)C(=S)SSC(=S)N(CC)CC [disulfiram, Bis(diethylthiocarbamoyl) disulfide]
- apoptosis by FACS analysis of DNA content (BCE cells): induced in a dose-dependent manner a sub-diploid apoptotic population; also recorded: appearance of a sub-diploid apoptotic population of cells
- dose dependence of abundance of apoptotic cells (FACS) (BCE cells): dose-dependent
- apoptosis by TUNEL method [1]: labeled; also recorded: induced into apoptosis
- apoptosis by TUNEL method (BALB/MK keratinocytes): did not induce
- induction of apoptosis (fibroblasts): fails to induce apoptosis
- inhibition of aldolases (aldolases): inhibit
- interference with induction of intestinal cancer (intestinal cancer): interfere with induction of cancer
- inhibition of tumor progression [2]: inhibit tumor progression
- incidence of mammary tumors (mammary tumors): reduce the incidence of mammary tumors
- effect on anti-tumor activity of ifosfamide and cyclophosphamide [3]: without compromising their anti-tumor activity
- effect on anti-tumor potency of HECNU [4]: without inhibiting its anti-tumor potency
- protection against toxic side effects of HECNU [4]: protected rats
- toxic dose (normal mice): 6-10 mg/mouse/day
- increase of any tumor type (rats): did not increase any tumor type
- conversion into main metabolite diethyldithiocarbamate (DDC) [5]: quickly converted
